The subject of one assay is Enterococcus sp. Kind of assay: Antibacterial activity against Enterococcus species. Format: functional.
In assay [1] the test system is Staphylococcus aureus. As to the kind of experiment: Antibacterial activity against methicillin susceptible Staphylococcus aureus (MSSA). Format: functional.
In the next assay the test system is Moraxella catarrhalis. Kind of assay: Antibacterial activity against Moraxella catarrhalis. Format: functional.
Assay [2] relates to Streptococcus pyogenes (Streptococcus pyogenes). As to the kind of experiment: Antibacterial activity against Streptococcus pyogenes.
For assay [3], the system named is Mus musculus. Kind of assay: Efficacy of compound to protect the methicillin resistant […] infected murine sc administration. The class given is functional.
The test system of assay [4] is Mus musculus. As to the kind of experiment: Efficacy of compound to protect the methicillin resistant Staphylococcus aureus infected murine po administration. Format: functional.
The test system of a further assay is Haemophilus influenzae. As to the kind of experiment: Antibacterial activity against […] influenzae. Format: functional.
The subject of assay [5] is Streptococcus pneumoniae. Kind of assay: Antibacterial activity against Streptococcus pneumoniae (PEN-R). The class given is functional.
Assay [6] concerns Mus musculus. As to the kind of experiment: Efficacy of compound to protect the methicillin resistant Staphylococcus aureus infected murine iv administration. The class given is functional.
The next assay relates to Streptococcus agalactiae. As to the kind of experiment: Antibacterial activity against Streptococcus agalactiae. Format: functional.
Assay [7] relates to Staphylococcus aureus. As to the kind of experiment: Antibacterial activity against methicillin resistant Staphylococcus aureus (MRSA). The class given is functional.
Assay [8] deals with Streptococcus pneumoniae. Kind of assay: Antibacterial activity against Staphylococcus pneumoniae (PEN-R).

From ChEMBL document CHEMBL1136461 (Bioorg Med Chem Lett, 2003) come the findings set out here.

Each structure is given as a SMILES string. Values after ≈ are worked out from the molar mass of the structure shown. Some results are limits rather than exact numbers.

The term ED50 denotes the dose at which the effect has come halfway, by size or by number of responders. High values mean a need for a large dose, low ones an effect at a small dose. Consider `COc1cc(Cc2cnc(N)nc2N)c2c(c1OC)OC(C1CC1)C=C2` (configuration not stated), for which the MIC90 against Enterococcus sp. is 0.12 µg/mL (≈ 0.339 µM); in the assay with Staphylococcus aureus [1] it was 0.06 µg/mL (≈ 0.169 µM); in the assay on Moraxella catarrhalis it was 4 µg/mL (≈ 11.3 µM); in assay [2], 0.03 µg/mL (≈ 0.0846 µM); in the assay with Haemophilus influenzae, 0.5 µg/mL (≈ 1.41 µM); in the assay with Streptococcus pneumoniae [5], 4 µg/mL (≈ 11.3 µM). In addition, the MIC90 with Streptococcus agalactiae amounted to 0.5 µg/mL (≈ 1.41 µM); in the assay with Staphylococcus aureus [7], 0.06 µg/mL (≈ 0.169 µM). The values for the ED50 in the assay on Mus musculus [3], in the assay with Mus musculus [4] and with Mus musculus [6] were 20 mg/kg, 17 mg/kg and 4.3 mg/kg, respectively.

With `CC(=O)NC[C@H]1CN(c2ccc(N3CCOCC3)c(F)c2)C(=O)O1` [LINEZOLID], the MIC90 with Enterococcus sp. was found to be 4 µg/mL (≈ 11.9 µM); in the assay on Staphylococcus aureus [1], 8 µg/mL (≈ 23.7 µM); against Moraxella catarrhalis, 8 µg/mL (≈ 23.7 µM); in assay [2] it was 2 µg/mL (≈ 5.93 µM); in the assay with Haemophilus influenzae, 64 µg/mL (≈ 190 µM); against Streptococcus pneumoniae [5], 2 µg/mL (≈ 5.93 µM). Further, the MIC90 against Streptococcus agalactiae is 2 µg/mL (≈ 5.93 µM); in the assay on Staphylococcus aureus [7], 8 µg/mL (≈ 23.7 µM).

Take `COc1cc(Cc2cnc(N)nc2N)cc(OC)c1OC` [TRIMETHOPRIM]: the MIC90 with Enterococcus sp. is 8 µg/mL (≈ 27.6 µM); with Staphylococcus aureus [1] it was 16 µg/mL (≈ 55.1 µM); with Moraxella catarrhalis, 128 µg/mL (≈ 441 µM); against Streptococcus pneumoniae [8], above 128 µg/mL; in assay [2] it was 64 µg/mL (≈ 220 µM); in the assay with Haemophilus influenzae, 1 µg/mL (≈ 3.44 µM). In addition, the MIC90 was determined as 128 µg/mL (≈ 441 µM) in the assay on Streptococcus agalactiae and 8 µg/mL (≈ 27.6 µM) in the assay with Staphylococcus aureus [7]. Also, the ED50 in the assay on Mus musculus [3] turned out to be 60 mg/kg; in the assay on Mus musculus [6], 15 mg/kg.

With `CN[C@H](CC(C)C)C(=O)N[C@H]1C(=O)N[C@@H](CC(N)=O)C(=O)N[C@H]2C(=O)N[C@H]3C(=O)N[C@H](C(=O)N[C@H](C(=O)O)c4cc(O)cc(O)c4-c4cc3ccc4O)[C@H](O)c3ccc(c(Cl)c3)Oc3cc2cc(c3O[C@@H]2O[C@H](CO)[C@@H](O)[C@H](O)[C@H]2O[C@H]2C[C@](C)(N)[C@H](O)[C@H](C)O2)Oc2ccc(cc2Cl)[C@H]1O` [VANCOMYCIN], the MIC90 against Enterococcus sp. was 2 µg/mL (≈ 1.38 µM); in the assay on Staphylococcus aureus [1] it was 1 µg/mL (≈ 0.69 µM); in the assay on Moraxella catarrhalis, 64 µg/mL (≈ 44.2 µM); in assay [2] it was 1 µg/mL (≈ 0.69 µM); in the assay with Haemophilus influenzae, 128 µg/mL (≈ 88.3 µM); in the assay on Streptococcus pneumoniae [5] it was 1 µg/mL (≈ 0.69 µM). In addition, the MIC90 against Streptococcus agalactiae was determined as 0.5 µg/mL (≈ 0.345 µM); against Staphylococcus aureus [7], 1 µg/mL (≈ 0.69 µM).
